Experimental data: PMC9378673 (Nature Communications, 2022)
Values joined by “and” are separate entries in the source; they are usually repeats but may differ in a detail not shown here. Identical values can stand only once. Counter-ions that a name gives are not always drawn. Like-named read-outs stand apart in the source and are kept apart here. Blank lines part the entries; values can stand above or below the molecule they belong to.

What was measured:
[1] = tested on: LN18 cells containing an empty vector (control, no IDH1); assay: 2-HG levels in cells by anion-exchange chromatography-MS; assay type: cell-based, human; design: unit not given here
[2] = target: T1, IDH1 S280F (Homo sapiens, UniProt O75874, S280F); assay: Steady-state kinetics, spectrophotometric NADPH absorption assay; assay type: biochemical
T1 construct: made in house; host or cells: E. coli BL21(DE3)plysS
T1 sequence (O75874 whole entry S280F): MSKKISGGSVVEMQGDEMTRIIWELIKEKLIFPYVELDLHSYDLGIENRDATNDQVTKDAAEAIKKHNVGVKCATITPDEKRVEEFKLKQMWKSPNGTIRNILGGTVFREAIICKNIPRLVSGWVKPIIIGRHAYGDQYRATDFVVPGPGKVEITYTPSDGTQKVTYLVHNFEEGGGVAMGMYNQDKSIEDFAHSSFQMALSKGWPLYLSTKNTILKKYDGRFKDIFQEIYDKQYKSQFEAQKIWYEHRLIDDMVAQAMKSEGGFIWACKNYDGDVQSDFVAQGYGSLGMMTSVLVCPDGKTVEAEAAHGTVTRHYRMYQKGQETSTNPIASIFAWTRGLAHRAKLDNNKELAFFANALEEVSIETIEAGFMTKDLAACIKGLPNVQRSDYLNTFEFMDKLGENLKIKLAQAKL
Description: (§1) This assay was used to study steady-state kinetics and inhibition of reactions catalysed by IDH1 variants. The assay buffer was 100 mM Tris, 10 mM MgCl2, 0.2 mM dithiothreitol (DTT), 0.005%(v/v) Tween 20, and 0.1 mg mL^−1 bovine serum albumin (BSA) (pH 8.0). For inhibition assays, IDH1 variants were incubated with an inhibitor for 12 min before the reaction was initiated by substrate addition. The standard error was derived from curve fitting using GraphPad Prism v9. See figure legends for details on specific kinetic assays (Figs. 1–3; Supplementary Fig. 5; Supplementary Table 1). […]
(§2) spectrophotometric NADPH absorption assay. Conditions: 100 mM Tris, 10 mM MgCl2, 0.2 mM DTT, 0.005 %(v/v) Tween 20, and 0.1 mg/mL bovine serum albumin (BSA), pH 8.0. […] (a) Michaelis Menten […]
(§3) parameters for the oxidative decarboxylation of isocitrate. Errors: standard error of the mean (n = 3). (b) Michaelis Menten parameters for the reduction of 2-OG to 2-HG. Errors: standard error of the mean (n = 3).

[3] = target: T2, IDH1 wt (Homo sapiens, UniProt O75874); assay: as above; assay type: biochemical
T2 construct: made in house; host or cells: E. coli BL21(DE3)plysS
T2 sequence (O75874 whole entry): as the sequence (O75874 whole entry S280F) above, with F280S counted along it
Description: as §1, §2, §3

[4] = 5 µM inhibitor, 24 h, replicates
[5] = oxidative decarboxylation of isocitrate; 1 nM enzyme; read-out: KM IDH1 S280F
[6] = oxidative decarboxylation of isocitrate; 1 nM enzyme; read-out: KM IDH1 wt
[7] = oxidative decarboxylation of isocitrate; 1 nM enzyme; varied substrate = label
[8] = reduction of 2-OG to 2-HG; […] enzyme; read-out: KM IDH1 S280F

SMILES: COc1c(C)cc(NC(=O)c2nn(Cc3ccc(F)cc3)c3c2CN(C(=O)c2ccc[nH]2)C[C@]3(C)C(N)=O)cc1C [GSK864]
2-HG levels, control (empty vector) LN18 cells [1, 4]: 43585.6 and 50898.8 and 60357.4 and 48169.7

SMILES: O=C(O)CC(C(=O)O)C(O)C(=O)O (racemic) [DL-Isocitrate, DL-isocitric acid trisodium salt]
Km [2, 5]: 12 ± 1 µM | Km [3, 6]: 31 ± 3 µM

SMILES: Cc1cn(C(=O)c2c(-c3c(Cl)cc(Cl)cc3Cl)noc2C(C)(C)F)c2cccc(/C=C/C(=O)O)c12 [DS-1001B]
2-HG levels, control (empty vector) LN18 cells [1, 4]: 51141.4 and 46980.7 and 53466.4 and 38288.1

Km [2, 5]: 24 ± 3 µM | kcat IDH1 S280F [2, 7]: 33 ± 1 s⁻¹ | Decrease of KM for IDH1 S280F compared to IDH1 wt ([2]; reduction of 2-OG to 2-HG): 100 fold | Km [2, 8]: 15 ± 4 µM | Km [3, 6]: 18 ± 2 µM | kcat IDH1 wt [3, 7]: 37 ± 1 s⁻¹
SMILES: [Cl-].[Cl-].[Mg+2] [MgCl2]

Km ([2]; read-out: KM IDH1 S280F; reduction of 2-OG to 2-HG; […] enzyme): 123 ± 4 µM | Km ([3]; read-out: KM IDH1 wt; reduction of 2-OG to 2-HG; […] enzyme): 792 ± 103 µM
SMILES: O=C(O)CCC(=O)C(=O)O [2-OG, 2-oxoglutarate]

SMILES: C[C@H](Nc1ccc(C#N)n(C)c1=O)c1cc2cc(Cl)ccc2[nH]c1=O [FT-2102]
2-HG levels, control (empty vector) LN18 cells [1, 4]: 52804.5 and 64927 and 75933.5 and 34018.1

SMILES: NC(=O)C1=CN([C@@H]2O[C@H](COP(=O)(O)OP(=O)(O)OC[C@H]3O[C@@H](n4cnc5c(N)ncnc54)[C@H](OP(=O)(O)O)[C@@H]3O)[C@@H](O)[C@H]2O)C=CC1 [NADPH]
Km [2, 8]: 3 ± 0.3 µM | Km ([3]; reduction of 2-OG to 2-HG; […] enzyme; read-out: KM IDH1 wt): 7 ± 2 µM

Km [2, 5]: 7.4 ± 0.7 µM | kcat IDH1 S280F [2, 7]: 31.3 ± 0.6 s⁻¹ | Km [3, 6]: 10.1 ± 0.7 µM | kcat IDH1 wt [3, 7]: 43.2 ± 0.7 s⁻¹
SMILES: NC(=O)c1ccc[n+]([C@@H]2O[C@H](COP(=O)([O-])OP(=O)(O)OC[C@H]3O[C@@H](n4cnc5c(N)ncnc54)[C@H](OP(=O)(O)O)[C@@H]3O)[C@@H](O)[C@H]2O)c1 [NADP+]

SMILES: CC(Nc1nccc(N2C(=O)OCC2C(C)C)n1)c1ccc(CN2CCC(F)(F)CC2)cc1 (stereo not drawn) [IDH224]
2-HG levels, control (empty vector) LN18 cells [1]: 89318.1 and 81458.8 and 60558.2 and 69273.4

SMILES: N#Cc1ccnc(N2C(=O)CC[C@H]2C(=O)N(c2cncc(F)c2)[C@H](C(=O)NC2CC(F)(F)C2)c2ccccc2Cl)c1 [ivosidenib]
2-HG levels, control (empty vector) LN18 cells ([1]; 5 µM inhibitor, 24 h, replicates, listed as AG120): 57883 and 75917.7 and 85802.8 and 47477.2
